Key:
PIK3CA (human) = PIK3CA (human) (UniProt P42336); experiment: Inhibition of PIK3CA Kinase Activity
PIK3CG = PIK3CG (UniProt P48736); experiment: Inhibition of PIK3CG Kinase Activity
PIK3CD (Human) = PIK3CD (Human) (UniProt O00329); experiment: Inhibition of PIK3CD Kinase Activity
PIK3CB (Human) [1] = target: PIK3CB (Human) (UniProt P42338); experiment: Inhibition of CD9 Antibody Induced Platelet Aggregation
PIK3CB (Human) [2] = target: PIK3CB (Human) (UniProt P42338); experiment: Inhibition of U937 Cell Proliferation
PIK3CB (Human) [3] = target: PIK3CB (Human) (UniProt P42338); experiment: Inhibition of Platelet Thrombus Formation under Flow
PIK3CB (Human) [4] = target: PIK3CB (Human) (UniProt P42338); experiment: Assessment of Neutrophil ROS Response in Human Whole Blood; conditions: neutrophils
CDK2 = CDK2 (UniProt P24941)
MAPK14 = MAPK14 (UniProt Q16539)
EGFR = EGFR (UniProt P00533)

PIK3CA (human), sequence (P42336 whole entry, looked up): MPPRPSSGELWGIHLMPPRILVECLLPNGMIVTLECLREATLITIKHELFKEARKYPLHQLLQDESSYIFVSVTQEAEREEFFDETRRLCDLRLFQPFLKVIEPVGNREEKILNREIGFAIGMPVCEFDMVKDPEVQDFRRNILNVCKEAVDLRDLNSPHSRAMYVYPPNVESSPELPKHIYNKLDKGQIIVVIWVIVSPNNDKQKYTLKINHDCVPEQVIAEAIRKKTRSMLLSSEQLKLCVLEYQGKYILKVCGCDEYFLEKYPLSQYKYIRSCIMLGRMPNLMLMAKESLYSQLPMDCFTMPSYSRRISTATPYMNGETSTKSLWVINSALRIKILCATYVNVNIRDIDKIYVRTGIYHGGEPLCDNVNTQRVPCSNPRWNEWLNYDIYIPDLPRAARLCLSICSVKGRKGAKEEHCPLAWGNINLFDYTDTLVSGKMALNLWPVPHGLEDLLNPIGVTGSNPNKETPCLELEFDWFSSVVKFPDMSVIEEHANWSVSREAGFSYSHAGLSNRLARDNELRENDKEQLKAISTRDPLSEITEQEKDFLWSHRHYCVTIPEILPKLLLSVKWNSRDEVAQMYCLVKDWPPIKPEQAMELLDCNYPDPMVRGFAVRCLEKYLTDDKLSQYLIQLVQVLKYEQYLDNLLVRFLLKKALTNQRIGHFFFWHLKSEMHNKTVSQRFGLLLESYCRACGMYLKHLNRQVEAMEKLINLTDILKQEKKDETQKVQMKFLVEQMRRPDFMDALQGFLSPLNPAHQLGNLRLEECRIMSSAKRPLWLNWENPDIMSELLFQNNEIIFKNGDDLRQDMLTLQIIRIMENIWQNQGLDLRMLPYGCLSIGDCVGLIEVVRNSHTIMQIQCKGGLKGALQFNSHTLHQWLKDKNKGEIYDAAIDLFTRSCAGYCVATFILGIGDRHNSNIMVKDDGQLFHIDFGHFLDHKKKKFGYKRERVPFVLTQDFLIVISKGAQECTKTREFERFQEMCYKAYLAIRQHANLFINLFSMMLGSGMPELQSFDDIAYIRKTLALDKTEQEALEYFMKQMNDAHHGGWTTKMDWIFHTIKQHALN
PIK3CG, sequence (P48736 whole entry, looked up): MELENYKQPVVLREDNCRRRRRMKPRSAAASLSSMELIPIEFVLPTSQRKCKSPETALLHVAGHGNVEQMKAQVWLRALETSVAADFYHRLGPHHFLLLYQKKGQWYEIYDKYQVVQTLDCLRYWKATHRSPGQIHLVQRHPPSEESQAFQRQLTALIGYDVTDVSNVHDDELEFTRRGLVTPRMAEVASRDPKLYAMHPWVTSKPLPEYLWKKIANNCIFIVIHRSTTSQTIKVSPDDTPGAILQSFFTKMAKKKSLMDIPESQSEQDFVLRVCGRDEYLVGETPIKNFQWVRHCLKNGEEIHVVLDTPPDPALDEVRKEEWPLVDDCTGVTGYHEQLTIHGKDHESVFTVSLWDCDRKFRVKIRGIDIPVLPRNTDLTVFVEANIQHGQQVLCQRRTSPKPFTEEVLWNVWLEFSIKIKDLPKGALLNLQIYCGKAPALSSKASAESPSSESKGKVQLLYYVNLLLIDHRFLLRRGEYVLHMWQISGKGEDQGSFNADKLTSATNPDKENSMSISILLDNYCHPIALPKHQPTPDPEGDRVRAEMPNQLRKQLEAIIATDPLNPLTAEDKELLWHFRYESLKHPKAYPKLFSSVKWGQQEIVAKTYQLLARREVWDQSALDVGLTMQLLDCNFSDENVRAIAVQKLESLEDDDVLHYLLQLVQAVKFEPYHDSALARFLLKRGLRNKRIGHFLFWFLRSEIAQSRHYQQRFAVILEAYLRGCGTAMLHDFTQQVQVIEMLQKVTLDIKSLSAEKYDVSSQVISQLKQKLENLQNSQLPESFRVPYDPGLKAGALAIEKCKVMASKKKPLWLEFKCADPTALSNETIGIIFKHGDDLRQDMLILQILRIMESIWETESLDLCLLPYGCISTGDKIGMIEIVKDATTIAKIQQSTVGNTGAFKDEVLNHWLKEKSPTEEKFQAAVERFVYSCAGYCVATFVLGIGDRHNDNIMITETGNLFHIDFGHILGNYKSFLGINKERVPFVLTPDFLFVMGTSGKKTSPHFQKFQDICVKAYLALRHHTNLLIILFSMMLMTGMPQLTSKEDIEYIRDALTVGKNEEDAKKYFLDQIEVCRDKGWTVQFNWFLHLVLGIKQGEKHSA
PIK3CD (Human), sequence (O00329 whole entry, looked up): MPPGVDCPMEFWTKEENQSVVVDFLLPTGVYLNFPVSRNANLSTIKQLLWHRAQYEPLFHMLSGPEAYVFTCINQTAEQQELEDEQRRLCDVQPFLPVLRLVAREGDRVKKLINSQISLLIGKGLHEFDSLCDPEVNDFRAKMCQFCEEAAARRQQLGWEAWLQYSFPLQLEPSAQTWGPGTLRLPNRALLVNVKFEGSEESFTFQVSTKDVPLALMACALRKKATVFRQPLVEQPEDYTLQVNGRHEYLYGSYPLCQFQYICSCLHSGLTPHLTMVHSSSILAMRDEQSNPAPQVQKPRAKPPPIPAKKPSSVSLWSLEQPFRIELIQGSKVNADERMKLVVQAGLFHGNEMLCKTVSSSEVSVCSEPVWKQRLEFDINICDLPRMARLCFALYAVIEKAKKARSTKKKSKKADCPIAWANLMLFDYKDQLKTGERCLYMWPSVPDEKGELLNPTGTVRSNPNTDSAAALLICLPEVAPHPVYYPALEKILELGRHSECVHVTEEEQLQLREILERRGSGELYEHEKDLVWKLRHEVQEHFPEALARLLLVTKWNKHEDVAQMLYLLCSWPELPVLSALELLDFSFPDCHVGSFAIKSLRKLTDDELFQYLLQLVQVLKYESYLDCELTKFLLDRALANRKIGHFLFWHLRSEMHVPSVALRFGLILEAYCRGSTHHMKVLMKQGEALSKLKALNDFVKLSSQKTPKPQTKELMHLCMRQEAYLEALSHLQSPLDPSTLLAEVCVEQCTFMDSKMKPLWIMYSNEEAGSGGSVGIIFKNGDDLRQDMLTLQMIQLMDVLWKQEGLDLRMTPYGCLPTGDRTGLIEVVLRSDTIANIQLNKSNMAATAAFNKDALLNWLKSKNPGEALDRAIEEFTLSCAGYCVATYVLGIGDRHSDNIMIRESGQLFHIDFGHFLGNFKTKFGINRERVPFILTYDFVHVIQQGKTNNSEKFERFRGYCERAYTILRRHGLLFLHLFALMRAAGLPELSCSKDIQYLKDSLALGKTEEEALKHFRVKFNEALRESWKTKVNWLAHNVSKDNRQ
PIK3CB (Human), sequence (P42338 whole entry, looked up): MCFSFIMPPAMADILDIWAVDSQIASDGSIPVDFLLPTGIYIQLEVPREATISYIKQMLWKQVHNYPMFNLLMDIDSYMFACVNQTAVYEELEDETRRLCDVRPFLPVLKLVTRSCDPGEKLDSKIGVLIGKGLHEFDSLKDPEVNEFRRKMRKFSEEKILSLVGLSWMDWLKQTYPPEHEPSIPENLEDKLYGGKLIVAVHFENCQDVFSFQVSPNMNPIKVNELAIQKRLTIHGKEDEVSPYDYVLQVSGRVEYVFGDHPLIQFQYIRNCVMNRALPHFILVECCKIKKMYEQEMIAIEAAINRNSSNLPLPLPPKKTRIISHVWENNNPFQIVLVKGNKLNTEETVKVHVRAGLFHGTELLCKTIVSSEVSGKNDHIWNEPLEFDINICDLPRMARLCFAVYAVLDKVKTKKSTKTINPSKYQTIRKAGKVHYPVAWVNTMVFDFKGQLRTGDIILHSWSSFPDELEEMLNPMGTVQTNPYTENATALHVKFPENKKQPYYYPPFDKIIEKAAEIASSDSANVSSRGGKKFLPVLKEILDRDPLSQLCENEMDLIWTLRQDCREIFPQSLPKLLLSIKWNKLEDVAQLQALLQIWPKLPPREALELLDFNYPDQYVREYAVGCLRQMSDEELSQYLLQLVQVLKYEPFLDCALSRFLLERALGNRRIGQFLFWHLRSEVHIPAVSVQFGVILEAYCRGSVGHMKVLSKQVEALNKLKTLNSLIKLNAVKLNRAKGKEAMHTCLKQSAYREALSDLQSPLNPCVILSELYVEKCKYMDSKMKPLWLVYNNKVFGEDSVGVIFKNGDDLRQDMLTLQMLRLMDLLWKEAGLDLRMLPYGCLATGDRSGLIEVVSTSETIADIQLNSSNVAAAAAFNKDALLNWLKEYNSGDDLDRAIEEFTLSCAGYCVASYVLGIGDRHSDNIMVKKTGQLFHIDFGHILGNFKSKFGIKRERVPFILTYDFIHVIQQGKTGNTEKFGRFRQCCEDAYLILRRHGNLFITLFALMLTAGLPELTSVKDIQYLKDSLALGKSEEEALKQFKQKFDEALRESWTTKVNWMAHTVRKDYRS
MAPK14, sequence (Q16539 whole entry, looked up): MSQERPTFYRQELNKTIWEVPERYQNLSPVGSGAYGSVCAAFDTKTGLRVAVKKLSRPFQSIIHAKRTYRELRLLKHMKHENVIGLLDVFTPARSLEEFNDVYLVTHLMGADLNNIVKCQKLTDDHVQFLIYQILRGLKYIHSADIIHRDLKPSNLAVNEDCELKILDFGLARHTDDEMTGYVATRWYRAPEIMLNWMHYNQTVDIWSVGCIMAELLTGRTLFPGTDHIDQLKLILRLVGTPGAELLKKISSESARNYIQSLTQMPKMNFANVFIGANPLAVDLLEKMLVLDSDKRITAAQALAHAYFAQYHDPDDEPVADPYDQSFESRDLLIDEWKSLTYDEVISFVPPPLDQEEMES

| SMILES | IC50 (PIK3CA (human)) | IC50 (PIK3CG) | IC50 (PIK3CD (Human)) | further results |
| --- | --- | --- | --- | --- |
| Cc1cc(C(C)Nc2cc(F)cc(F)c2)c2nc(N3CCOCC3)cc(=O)n2c1 (stereo not drawn) | > 5 µM | – | – | – |
| Cc1cc(CNc2ccccc2)c2oc(-c3ccncc3)cc(=O)c2c1 | – | 10 µM | 10 µM | – |
| Cc1cc(C(C)Nc2ccc(Cl)cc2)c2nc(N3CCOCC3)cc(=O)n2c1 (stereo not drawn) | > 5 µM | – | – | – |
| Cc1cccc(NC(C)c2cc(C)cn3c(=O)cc(N4CCOCC4)nc23)c1 (stereo not drawn) | > 5 µM | – | – | – |
| Cc1cc(C(C)Oc2ccccc2)c2oc(-c3ccncc3)cc(=O)c2c1 (stereo not drawn) | – | 20 µM | – | – |
| Cc1cc(C(C)Nc2ccccc2)c2oc(-c3ccncc3)cc(=O)c2c1 (stereo not drawn) | – | – | – | IC50 (PIK3CB (Human) [1]): 0.1 µM; IC50 (PIK3CB (Human) [2]): 5 µM; IC50 (PIK3CB (Human) [3]): 0.5 µM; IC50 (PIK3CB (Human) [4]): 0.005 µM |
| O=c1cc(-c2ccncc2)oc2c(OCc3ccccc3)cccc12 | – | 10 µM | – | – |
| O=c1cc(-c2ccncc2)[nH]c2c(-c3ccccc3)cccc12 | – | – | 10 µM | – |
| Cc1cc(C(C)Nc2ccccn2)c2nc(N3CCOCC3)cc(=O)n2c1 (stereo not drawn) | > 5 µM | – | – | – |
| Cc1cc(COc2ccccc2)c2oc(-c3ccncc3)cc(=O)c2c1 | – | 10 µM | – | – |
| CC(Nc1ccccc1N)c1cccc2c(=O)cc(-c3ccncc3)oc12 (stereo not drawn) | – | 15 µM | 0.5 µM | IC50 (PIK3CB (Human) [1]): 0.2 µM; IC50 (PIK3CB (Human) [2]): 20 µM; IC50 (PIK3CB (Human) [3]): 0.25 µM; IC50 (PIK3CB (Human) [4]): 0.078 µM |
| Cc1cc(C(C)Nc2ccccc2)c2nc(N3CCOCC3)cc(=O)n2c1 (stereo not drawn) | > 5 µM | – | – | IC50 (CDK2): > 10 µM; IC50 (MAPK14): > 10 µM; IC50 (EGFR): > 10 µM |
| Cc1cc(CN(C)c2ccccc2)c2nc(N3CCOCC3)cc(=O)n2c1 | > 5 µM | – | – | – |
| Cc1cc(C(C)Nc2cccc(C(F)(F)F)c2)c2oc(-c3ccncc3)cc(=O)c2c1 (stereo not drawn) | – | 10 µM | – | – |

Now from value to molecule, other results behind:

| IC50 (PIK3CA (human)) | IC50 (PIK3CG) | IC50 (PIK3CD (Human)) | SMILES | further results |
| --- | --- | --- | --- | --- |
| > 5 µM | – | – | Cc1cc(C(C)Nc2cccc(C(F)(F)F)c2)c2nc(N3CCOCC3)cc(=O)n2c1 (stereo not drawn) | – |
| – | 20 µM | 1 µM | Cc1cc(N[C@H](C)c2ccccc2)c2nc(-c3ccncc3)cc(=O)n2c1 | – |
| – | 5 µM | 1 µM | CC(=O)Nc1ccccc1NCc1cc(C)cc2c(=O)cc(-c3ccncc3)oc12 | – |
| > 5 µM | – | – | Cc1cc(C(C)Nc2cccc(Cl)c2)c2nc(N3CCOCC3)cc(=O)n2c1 (stereo not drawn) | – |
| > 5 µM | – | – | Cc1cc(C(C)Nc2ccc(Cl)c(Cl)c2)c2nc(N3CCOCC3)cc(=O)n2c1 (stereo not drawn) | – |
| – | 10 µM | 10 µM | Cc1cc(C(C)n2c(C(F)(F)F)nc3ccccc32)c2oc(-c3ccncc3)cc(=O)c2c1 (stereo not drawn) | – |
| – | > 10 µM | > 10 µM | Cc1cc(-c2ccccc2)c2nc(-c3ccncc3)cc(=O)n2c1 | – |
| – | – | 0.2 µM | O=c1cc(-c2ccncc2)oc2c(NCc3ccccc3)cccc12 | – |

From the Kinase Knowledgebase extract (Sharma et al. 2016)
